{
  "source": "PubChem BioAssay (NCI)",
  "assay_in_all_cases": "NCI tumour cell line growth inhibition, 48 h",
  "key": {"KM12 colon": {"system": "KM12 colon"}, "HOP-92 NSCLC": {"system": "HOP-92 NSCLC"}, "OVCAR-8 ovarian": {"system": "OVCAR-8 ovarian"}, "U251 CNS": {"system": "U251 CNS"}, "SF-295 CNS": {"system": "SF-295 CNS"}, "BT-549 breast": {"system": "BT-549 breast"}, "PC-3 prostate": {"system": "PC-3 prostate"}, "SF-539 CNS": {"system": "SF-539 CNS"}, "SK-MEL-2 melanoma": {"system": "SK-MEL-2 melanoma"}, "HCT-116 colon": {"system": "HCT-116 colon"}, "SR leukemia": {"system": "SR leukemia"}},
  "note": "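Following 48 hours of exposure in 96-well plates, responses at five concentrations were used to interpolate endpoints linearly. At the GI50, growth is halved. The concentration for full growth arrest is given as TGI.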",
  "data": [
    {"smiles": "c1nc(N2CC2)c2cnn(C3CCCCO3)c2n1", "note": "(stereo not drawn)", "values": [
      {"measurement": "TGI", "setting": "KM12 colon", "result": "> 100", "unit": "µM"},
      {"measurement": "TGI", "setting": "HOP-92 NSCLC", "result": "> 100", "unit": "µM"},
      {"measurement": "TGI", "setting": "OVCAR-8 ovarian", "result": "> 100", "unit": "µM"},
      {"measurement": "TGI", "setting": "U251 CNS", "result": "> 100", "unit": "µM"},
      {"measurement": "TGI", "setting": "SF-295 CNS", "result": "> 100", "unit": "µM"},
      {"measurement": "TGI", "setting": "BT-549 breast", "result": "> 100", "unit": "µM"},
      {"measurement": "TGI", "setting": "PC-3 prostate", "result": "> 100", "unit": "µM"},
      {"measurement": "TGI", "setting": "SF-539 CNS", "result": "> 100", "unit": "µM"},
      {"measurement": "TGI", "setting": "SK-MEL-2 melanoma", "result": "> 100", "unit": "µM"},
      {"measurement": "TGI", "setting": "HCT-116 colon", "result": "> 100", "unit": "µM"},
      {"measurement": "TGI", "setting": "SR leukemia", "result": "> 100", "unit": "µM"}
    ]},
    {"smiles": "OCCCNc1nc(=S)[nH]c2[nH]ncc12", "values": [
      {"measurement": "GI50", "setting": "KM12 colon", "result": 38.1, "unit": "µM"},
      {"measurement": "TGI", "setting": "KM12 colon", "result": "> 100", "unit": "µM"},
      {"measurement": "GI50", "setting": "HOP-92 NSCLC", "result": 65.6, "unit": "µM"},
      {"measurement": "TGI", "setting": "HOP-92 NSCLC", "result": "> 100", "unit": "µM"},
      {"measurement": "GI50", "setting": "OVCAR-8 ovarian", "result": 37.8, "unit": "µM"},
      {"measurement": "TGI", "setting": "OVCAR-8 ovarian", "result": "> 100", "unit": "µM"},
      {"measurement": "GI50", "setting": "U251 CNS", "result": 40.1, "unit": "µM"},
      {"measurement": "TGI", "setting": "U251 CNS", "result": "> 100", "unit": "µM"},
      {"measurement": "GI50", "setting": "SF-295 CNS", "result": 49, "unit": "µM"},
      {"measurement": "TGI", "setting": "SF-295 CNS", "result": "> 100", "unit": "µM"},
      {"measurement": "GI50", "setting": "BT-549 breast", "result": 46.8, "unit": "µM"},
      {"measurement": "TGI", "setting": "BT-549 breast", "result": "> 100", "unit": "µM"},
      {"measurement": "GI50", "setting": "PC-3 prostate", "result": 70.2, "unit": "µM"},
      {"measurement": "TGI", "setting": "PC-3 prostate", "result": "> 100", "unit": "µM"},
      {"measurement": "GI50", "setting": "SF-539 CNS", "result": 23.3, "unit": "µM"},
      {"measurement": "TGI", "setting": "SF-539 CNS", "result": "> 100", "unit": "µM"},
      {"measurement": "GI50", "setting": "SK-MEL-2 melanoma", "result": 53.2, "unit": "µM"},
      {"measurement": "TGI", "setting": "SK-MEL-2 melanoma", "result": "> 100", "unit": "µM"}
    ]},
    {"smiles": "CCOC(=O)NC(=O)c1cn(CCNCCO)c(=O)[nH]c1=O", "values": [
      {"measurement": "TGI", "setting": "KM12 colon", "result": "> 100", "unit": "µM"},
      {"measurement": "TGI", "setting": "HOP-92 NSCLC", "result": "> 100", "unit": "µM"},
      {"measurement": "TGI", "setting": "OVCAR-8 ovarian", "result": "> 100", "unit": "µM"},
      {"measurement": "TGI", "setting": "U251 CNS", "result": "> 100", "unit": "µM"},
      {"measurement": "TGI", "setting": "SF-295 CNS", "result": "> 100", "unit": "µM"},
      {"measurement": "TGI", "setting": "SF-539 CNS", "result": "> 100", "unit": "µM"},
      {"measurement": "TGI", "setting": "SK-MEL-2 melanoma", "result": "> 100", "unit": "µM"},
      {"measurement": "TGI", "setting": "HCT-116 colon", "result": "> 100", "unit": "µM"},
      {"measurement": "TGI", "setting": "SR leukemia", "result": "> 100", "unit": "µM"}
    ]},
    {"smiles": "CCN(CCO)C(=O)C1(c2ccccc2)CCCCC1", "values": [
      {"measurement": "TGI", "setting": "KM12 colon", "result": "> 10", "unit": "µM"},
      {"measurement": "TGI", "setting": "OVCAR-8 ovarian", "result": "> 10", "unit": "µM"},
      {"measurement": "TGI", "setting": "U251 CNS", "result": "> 10", "unit": "µM"},
      {"measurement": "TGI", "setting": "SF-295 CNS", "result": "> 10", "unit": "µM"},
      {"measurement": "TGI", "setting": "PC-3 prostate", "result": "> 10", "unit": "µM"},
      {"measurement": "TGI", "setting": "SF-539 CNS", "result": "> 10", "unit": "µM"},
      {"measurement": "TGI", "setting": "SK-MEL-2 melanoma", "result": "> 10", "unit": "µM"},
      {"measurement": "TGI", "setting": "HCT-116 colon", "result": "> 10", "unit": "µM"},
      {"measurement": "TGI", "setting": "SR leukemia", "result": "> 10", "unit": "µM"}
    ]},
    {"smiles": "COc1ccc(CC2CCc3nc(N)nc(N)c3C2)cc1OC", "note": "(stereo not drawn)", "values": [
      {"measurement": "TGI", "setting": "KM12 colon", "result": "> 100", "unit": "µM"},
      {"measurement": "TGI", "setting": "HOP-92 NSCLC", "result": "> 100", "unit": "µM"},
      {"measurement": "TGI", "setting": "OVCAR-8 ovarian", "result": "> 62.5", "unit": "µM"},
      {"measurement": "TGI", "setting": "U251 CNS", "result": "> 100", "unit": "µM"},
      {"measurement": "TGI", "setting": "SF-295 CNS", "result": "> 41.4", "unit": "µM"},
      {"measurement": "TGI", "setting": "BT-549 breast", "result": 51.7, "unit": "µM"},
      {"measurement": "TGI", "setting": "PC-3 prostate", "result": "> 100", "unit": "µM"},
      {"measurement": "TGI", "setting": "SF-539 CNS", "result": "> 40.5", "unit": "µM"},
      {"measurement": "TGI", "setting": "SK-MEL-2 melanoma", "result": "> 91.6", "unit": "µM"},
      {"measurement": "TGI", "setting": "HCT-116 colon", "result": "> 100", "unit": "µM"},
      {"measurement": "TGI", "setting": "SR leukemia", "result": "> 100", "unit": "µM"}
    ]}
  ]
}
